Source: ChEMBL document CHEMBL3351493, “Beta-aminoketones as prodrugs for selective irreversible inhibitors of type-1 methionine aminopeptidases” (Bioorg Med Chem Lett, 2014)
Activity calls are given as the source filed them. The calls are words filed in the database; no cut-off is given here.

System: A-431
Experiment: Cytotoxicity against human A431 cells at 1.6 to 100 ug/ml after 72 hrs by crystal violet assay
Type: functional, cell-based
Conditions: not given

SMILES	Activity
CN(C)CC1Cc2c(cccc2C(F)(F)F)C1=O.Cl (configuration not stated)	Active
C=C1Cc2cc(OC)ccc2C1=O	Active
COc1ccc2c(c1)CC(CN(C)C)C2=O.Cl (configuration not stated)	Active
CN(C)CC1Cc2cc(Br)ccc2C1=O.Cl (configuration not stated)	Active
CN(C)CC1Cc2ccccc2C1=O.Cl (configuration not stated)	Active
Cl.O=C1c2ccccc2CC1CN1CCCCC1 (configuration not stated)	Active
COc1ccc(C(=O)CCN2CCCCC2)cc1.Cl	Active
Cc1ccc2c(c1)C(=O)C(CN(C)C)C2.Cl (configuration not stated)	Active

Target: Methionine aminopeptidase 1 (Homo sapiens, UniProt P53582)
Experiment: Inhibition of N-terminal poly-His-tagged human MetAP-1 expressed in Escherichia coli BL21(DE3) incubated for 30 mins before MGMM substrate addition by fluorescence assay
Conditions: not given

SMILES	IC50
COc1ccc(C(=O)CCN2CCCCC2)cc1.Cl	Not Active

System: not listed separately
Experiment: Cytotoxicity against human Flow 2002 cells at 1.6 to 100 ug/ml after 72 hrs by crystal violet assay
Type: cell-based
Conditions: flow 2002, 72 h

SMILES	Activity
CN(C)CC1Cc2c(cccc2C(F)(F)F)C1=O.Cl (configuration not stated)	Toxic
C=C1Cc2cc(OC)ccc2C1=O	Toxic
COc1ccc2c(c1)CC(CN(C)C)C2=O.Cl (configuration not stated)	Toxic
CN(C)CC1Cc2cc(Br)ccc2C1=O.Cl (configuration not stated)	Toxic
CN(C)CC1Cc2ccccc2C1=O.Cl (configuration not stated)	Toxic
Cl.O=C1c2ccccc2CC1CN1CCCCC1 (configuration not stated)	Toxic
COc1ccc(C(=O)CCN2CCCCC2)cc1.Cl	Toxic
Cc1ccc2c(c1)C(=O)C(CN(C)C)C2.Cl (configuration not stated)	Toxic

System: A 172
Experiment: Cytotoxicity against human A172 cells at 1.6 to 100 ug/ml after 72 hrs by crystal violet assay
Type: functional, cell-based
Conditions: not given

SMILES	Activity
CN(C)CC1Cc2c(cccc2C(F)(F)F)C1=O.Cl (configuration not stated)	Active
C=C1Cc2cc(OC)ccc2C1=O	Active
COc1ccc2c(c1)CC(CN(C)C)C2=O.Cl (configuration not stated)	Active
CN(C)CC1Cc2cc(Br)ccc2C1=O.Cl (configuration not stated)	Active
CN(C)CC1Cc2ccccc2C1=O.Cl (configuration not stated)	Active
Cl.O=C1c2ccccc2CC1CN1CCCCC1 (configuration not stated)	Active
COc1ccc(C(=O)CCN2CCCCC2)cc1.Cl	Active
Cc1ccc2c(c1)C(=O)C(CN(C)C)C2.Cl (configuration not stated)	Active

System: SW707
Experiment: Cytotoxicity against human SW707 cells at 1.6 to 100 ug/ml after 72 hrs by crystal violet assay
Type: functional, cell-based
Conditions: not given

SMILES	Activity
CN(C)CC1Cc2c(cccc2C(F)(F)F)C1=O.Cl (configuration not stated)	Active
C=C1Cc2cc(OC)ccc2C1=O	Active
COc1ccc2c(c1)CC(CN(C)C)C2=O.Cl (configuration not stated)	Active
CN(C)CC1Cc2cc(Br)ccc2C1=O.Cl (configuration not stated)	Active
CN(C)CC1Cc2ccccc2C1=O.Cl (configuration not stated)	Active
Cl.O=C1c2ccccc2CC1CN1CCCCC1 (configuration not stated)	Active
COc1ccc(C(=O)CCN2CCCCC2)cc1.Cl	Active
Cc1ccc2c(c1)C(=O)C(CN(C)C)C2.Cl (configuration not stated)	Active

Target: Methionine aminopeptidase (Staphylococcus aureus (strain COL), UniProt Q5HEN6)
Experiment: Inhibition of N-terminal poly-His-tagged Staphylococcus aureus COL MetAP expressed in Escherichia coli BL21(DE3) incubated for 30 mins before MGMM substrate addition by fluorescence assay
Parameters: species or system Staphylococcus aureus subsp. aureus COL
Conditions: not given

SMILES	IC50
COc1ccc(C(=O)CCN2CCCCC2)cc1.Cl	Not Active

Same assay, conditions: read-out: IC50

SMILES	IC50
CN(C)CC1Cc2c(cccc2C(F)(F)F)C1=O.Cl (configuration not stated)	46 µM
CN(C)CC1Cc2ccccc2C1=O.Cl (configuration not stated)	26 µM
Cl.O=C1c2ccccc2CC1CN1CCCCC1 (configuration not stated)	25 µM

Further lines, results first:

IC50	SMILES
42.1 µM	COc1ccc2c(c1)CC(CN(C)C)C2=O.Cl (configuration not stated)
7.8 µM	CN(C)CC1Cc2cc(Br)ccc2C1=O.Cl (configuration not stated)
15 µM	Cc1ccc2c(c1)C(=O)C(CN(C)C)C2.Cl (configuration not stated)

System: BT-474
Experiment: Cytotoxicity against human BT474 cells at 1.6 to 100 ug/ml after 72 hrs by crystal violet assay
Type: functional, cell-based
Conditions: not given

SMILES	Activity
CN(C)CC1Cc2c(cccc2C(F)(F)F)C1=O.Cl (configuration not stated)	Active
C=C1Cc2cc(OC)ccc2C1=O	Active
COc1ccc2c(c1)CC(CN(C)C)C2=O.Cl (configuration not stated)	Active
CN(C)CC1Cc2cc(Br)ccc2C1=O.Cl (configuration not stated)	Active
CN(C)CC1Cc2ccccc2C1=O.Cl (configuration not stated)	Active
Cl.O=C1c2ccccc2CC1CN1CCCCC1 (configuration not stated)	Active
COc1ccc(C(=O)CCN2CCCCC2)cc1.Cl	Active
Cc1ccc2c(c1)C(=O)C(CN(C)C)C2.Cl (configuration not stated)	Active

System: not listed separately
Experiment: Half life assessed as decomposition into amines and unsaturated ketones at 250 uM in 50 mM Tris/maleate pH 7.5 buffer by HPLC method
Type: physicochemical
Conditions: Tris/maleate buffer, pH 7.5

SMILES	half-life at 250 µM
CN(C)CC1Cc2c(cccc2C(F)(F)F)C1=O.Cl (configuration not stated)	1730 min
CN(C)CC1Cc2ccccc2C1=O.Cl (configuration not stated)	10 min
Cl.O=C1c2ccccc2CC1CN1CCCCC1 (configuration not stated)	16 min

More lines, now with the values ahead:

half-life at 250 µM	SMILES
45 min	COc1ccc2c(c1)CC(CN(C)C)C2=O.Cl (configuration not stated)
6 min	CN(C)CC1Cc2cc(Br)ccc2C1=O.Cl (configuration not stated)
14 min	Cc1ccc2c(c1)C(=O)C(CN(C)C)C2.Cl (configuration not stated)

System: HaCaT
Experiment: Cytotoxicity against human HaCaT cells at 1.6 to 100 ug/ml after 72 hrs by crystal violet assay
Type: cell-based
Conditions: not given

SMILES	Activity
CN(C)CC1Cc2c(cccc2C(F)(F)F)C1=O.Cl (configuration not stated)	Toxic
C=C1Cc2cc(OC)ccc2C1=O	Toxic
COc1ccc2c(c1)CC(CN(C)C)C2=O.Cl (configuration not stated)	Toxic
CN(C)CC1Cc2cc(Br)ccc2C1=O.Cl (configuration not stated)	Toxic
CN(C)CC1Cc2ccccc2C1=O.Cl (configuration not stated)	Toxic
Cl.O=C1c2ccccc2CC1CN1CCCCC1 (configuration not stated)	Toxic
COc1ccc(C(=O)CCN2CCCCC2)cc1.Cl	Toxic
Cc1ccc2c(c1)C(=O)C(CN(C)C)C2.Cl (configuration not stated)	Toxic

System: Escherichia coli
Experiment: Antimicrobial activity against Escherichia coli BL21(DE3) assessed as inhibition of bacterial growth at 200 uM incubated at 37 degC for 7 hrs
Type: functional
Conditions: not given

SMILES	inhibition
COc1ccc(C(=O)CCN2CCCCC2)cc1.Cl	inactive

Same assay, conditions: BL21-DE3, 7 h

SMILES	inhibition at 200 µM
CN(C)CC1Cc2c(cccc2C(F)(F)F)C1=O.Cl (configuration not stated)	22%
COc1ccc2c(c1)CC(CN(C)C)C2=O.Cl (configuration not stated)	35%
CN(C)CC1Cc2cc(Br)ccc2C1=O.Cl (configuration not stated)	57%
CN(C)CC1Cc2ccccc2C1=O.Cl (configuration not stated)	90%
Cl.O=C1c2ccccc2CC1CN1CCCCC1 (configuration not stated)	50%
Cc1ccc2c(c1)C(=O)C(CN(C)C)C2.Cl (configuration not stated)	45%

Target: T1, Methionine aminopeptidase (Escherichia coli K-12, UniProt P0AE18)
T1 sequence (P0AE18 whole entry): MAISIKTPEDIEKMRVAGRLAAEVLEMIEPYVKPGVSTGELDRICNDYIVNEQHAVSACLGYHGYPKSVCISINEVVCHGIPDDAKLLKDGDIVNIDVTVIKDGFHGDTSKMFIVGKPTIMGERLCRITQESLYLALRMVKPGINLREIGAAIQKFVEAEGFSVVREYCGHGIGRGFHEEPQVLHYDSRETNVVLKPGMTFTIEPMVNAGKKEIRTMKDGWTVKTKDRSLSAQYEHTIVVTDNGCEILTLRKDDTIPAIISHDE
Experiment: Inhibition of C-terminal poly-His-tagged Escherichia coli MetAP expressed in Escherichia coli BL21(DE3) incubated for 30 mins before MGMM substrate addition by fluorescence assay
Conditions: not given

SMILES	IC50
COc1ccc(C(=O)CCN2CCCCC2)cc1.Cl	Not Active

Same assay, conditions: read-out: IC50

SMILES	IC50
CN(C)CC1Cc2c(cccc2C(F)(F)F)C1=O.Cl (configuration not stated)	7 µM
CN(C)CC1Cc2ccccc2C1=O.Cl (configuration not stated)	2.8 µM
Cl.O=C1c2ccccc2CC1CN1CCCCC1 (configuration not stated)	3.1 µM

The next lines start with the values.

IC50	SMILES
0.98 µM	C=C1Cc2cc(OC)ccc2C1=O
2 µM	COc1ccc2c(c1)CC(CN(C)C)C2=O.Cl (configuration not stated)
0.72 µM	CN(C)CC1Cc2cc(Br)ccc2C1=O.Cl (configuration not stated)
0.7 µM	Cc1ccc2c(c1)C(=O)C(CN(C)C)C2.Cl (configuration not stated)

System: Calu-6
Experiment: Cytotoxicity against human Calu6 cells at 1.6 to 100 ug/ml after 72 hrs by crystal violet assay
Type: functional, cell-based
Conditions: not given

SMILES	Activity
CN(C)CC1Cc2c(cccc2C(F)(F)F)C1=O.Cl (configuration not stated)	Active
C=C1Cc2cc(OC)ccc2C1=O	Active
COc1ccc2c(c1)CC(CN(C)C)C2=O.Cl (configuration not stated)	Active
CN(C)CC1Cc2cc(Br)ccc2C1=O.Cl (configuration not stated)	Active
CN(C)CC1Cc2ccccc2C1=O.Cl (configuration not stated)	Active
Cl.O=C1c2ccccc2CC1CN1CCCCC1 (configuration not stated)	Active
COc1ccc(C(=O)CCN2CCCCC2)cc1.Cl	Active
Cc1ccc2c(c1)C(=O)C(CN(C)C)C2.Cl (configuration not stated)	Active

System: CAPAN-1
Experiment: Cytotoxicity against human Capan1 cells at 1.6 to 100 ug/ml after 72 hrs by crystal violet assay
Type: functional, cell-based
Conditions: not given

SMILES	Activity
CN(C)CC1Cc2c(cccc2C(F)(F)F)C1=O.Cl (configuration not stated)	Active
C=C1Cc2cc(OC)ccc2C1=O	Active
COc1ccc2c(c1)CC(CN(C)C)C2=O.Cl (configuration not stated)	Active
CN(C)CC1Cc2cc(Br)ccc2C1=O.Cl (configuration not stated)	Active
CN(C)CC1Cc2ccccc2C1=O.Cl (configuration not stated)	Active
Cl.O=C1c2ccccc2CC1CN1CCCCC1 (configuration not stated)	Active
COc1ccc(C(=O)CCN2CCCCC2)cc1.Cl	Active
Cc1ccc2c(c1)C(=O)C(CN(C)C)C2.Cl (configuration not stated)	Active

Target: Methionine aminopeptidase 2 (Homo sapiens, UniProt P50579)
Conditions: sf9
Description: Inhibition of human MetAP-2 expressed in Sf9 cells incubated for 60 mins before MGMM substrate addition by fluorescence assay

Chain of Methionine aminopeptidase 2 (P50579 whole entry): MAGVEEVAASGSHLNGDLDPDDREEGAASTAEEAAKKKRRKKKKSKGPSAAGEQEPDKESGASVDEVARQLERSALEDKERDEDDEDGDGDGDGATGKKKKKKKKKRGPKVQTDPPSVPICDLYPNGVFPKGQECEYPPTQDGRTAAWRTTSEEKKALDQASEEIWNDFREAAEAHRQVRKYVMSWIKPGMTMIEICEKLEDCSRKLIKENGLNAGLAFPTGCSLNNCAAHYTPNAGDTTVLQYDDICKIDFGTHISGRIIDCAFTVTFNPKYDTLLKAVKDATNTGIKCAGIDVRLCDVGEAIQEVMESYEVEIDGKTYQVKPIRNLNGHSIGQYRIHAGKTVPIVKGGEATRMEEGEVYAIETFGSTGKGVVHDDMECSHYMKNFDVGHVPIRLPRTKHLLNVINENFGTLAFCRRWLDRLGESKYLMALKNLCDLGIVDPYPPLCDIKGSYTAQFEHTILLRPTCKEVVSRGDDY

SMILES	IC50
CN(C)CC1Cc2c(cccc2C(F)(F)F)C1=O.Cl (configuration not stated)	Not Active
CN(C)CC1Cc2ccccc2C1=O.Cl (configuration not stated)	Not Active
Cl.O=C1c2ccccc2CC1CN1CCCCC1 (configuration not stated)	Not Active
COc1ccc(C(=O)CCN2CCCCC2)cc1.Cl	Not Active

Next, values leading:

IC50	SMILES
Not Active	C=C1Cc2cc(OC)ccc2C1=O
Not Active	COc1ccc2c(c1)CC(CN(C)C)C2=O.Cl (configuration not stated)
Not Active	CN(C)CC1Cc2cc(Br)ccc2C1=O.Cl (configuration not stated)
Not Active	Cc1ccc2c(c1)C(=O)C(CN(C)C)C2.Cl (configuration not stated)

System: Ca-Ski
Experiment: Cytotoxicity against human CaSki cells at 1.6 to 100 ug/ml after 72 hrs by crystal violet assay
Type: functional, cell-based
Conditions: not given

SMILES	Activity
CN(C)CC1Cc2c(cccc2C(F)(F)F)C1=O.Cl (configuration not stated)	Active
C=C1Cc2cc(OC)ccc2C1=O	Active
COc1ccc2c(c1)CC(CN(C)C)C2=O.Cl (configuration not stated)	Active
CN(C)CC1Cc2cc(Br)ccc2C1=O.Cl (configuration not stated)	Active
CN(C)CC1Cc2ccccc2C1=O.Cl (configuration not stated)	Active
Cl.O=C1c2ccccc2CC1CN1CCCCC1 (configuration not stated)	Active
COc1ccc(C(=O)CCN2CCCCC2)cc1.Cl	Active
Cc1ccc2c(c1)C(=O)C(CN(C)C)C2.Cl (configuration not stated)	Active

System: MeWo
Experiment: Cytotoxicity against human MeWo cells at 1.6 to 100 ug/ml after 72 hrs by crystal violet assay
Type: functional, cell-based
Conditions: not given

SMILES	Activity
CN(C)CC1Cc2c(cccc2C(F)(F)F)C1=O.Cl (configuration not stated)	Active
C=C1Cc2cc(OC)ccc2C1=O	Active
COc1ccc2c(c1)CC(CN(C)C)C2=O.Cl (configuration not stated)	Active
CN(C)CC1Cc2cc(Br)ccc2C1=O.Cl (configuration not stated)	Active
CN(C)CC1Cc2ccccc2C1=O.Cl (configuration not stated)	Active
Cl.O=C1c2ccccc2CC1CN1CCCCC1 (configuration not stated)	Active
COc1ccc(C(=O)CCN2CCCCC2)cc1.Cl	Active
Cc1ccc2c(c1)C(=O)C(CN(C)C)C2.Cl (configuration not stated)	Active
